Consider twelve compounds from US20250051344A1, “BIFUNCTIONAL SELECTIVE DEGRADERS OF SMARCA2 AND THERAPEUTIC USES THEREOF” (Nurix Therapeutics, Inc., priority 2023, published 2025).

The target in experiment [1] is T1, SMARCA2 (Homo sapiens, UniProt P51531).
T1 construct: endogenous in cells
Put plainly: SMARCA2 Cellular Degradation Assay (Western blot analysis on Jess platform). It is filed as cell-based. To be noted: for DC50 / Dmax: cellular degradation; for Fold Selectivity SMARCA4/2: ratio DC50 SMARCA4 / DC50 SMARCA2. The method, then:
SMARCA2 Cellular Degradation Assay
Western Blot Analysis for SMARCA2 Degradation
Frozen cell pellets were thawed on ice and resuspended in RIPA lysis buffer (Millipore, Cat. No. 20-188) supplemented with 0.2% SDS (Fisher Scientific, Cat. No. 24730020), 200 mM β-glycerophosphate (Alfa Aesar, Cat. No. J62121), 500 mM NaF (Rigaku, Cat. No. 1008046), protease inhibitor (1 tablet per 10 mL, Sigma, Cat. No. 11836170001), 250 U/μL benzonase (Millipore, Cat. No. 71206), 200 mM sodium orthovanadate (FivePhoton, Cat. No. ActVO-4), and 100 mM PMSF (Sigma, Cat. No. 10837091001). 50 μL lysis buffer was used to lyse each pellet containing 5×10E5-1×10E6 live cells extracted from tumors. Lysates were centrifuged for 10 mins at 20,817×g and lysate supernatants were saved for further analysis. Protein levels were determined by the BCA Assay performed according to manufacturer's protocol (EMD Millipore, Cat. No. 71285-3). Samples were evaluated by Western blot analysis on the Jess Platform (ProteinSimple). Lysates were diluted with complete lysis buffer (as described above) and 5 μg of total proteins were loaded onto each capillary. Samples were prepared using the ProteinSimple EZ Standard Pack 1 (Cat. No. PS-ST01EZ-8; containing tubes with powdered (5×) Fluorescent Master Mix, DTT, and biotinylated ladder) and run using the ProteinSimple 25-Capillary Cartridge kit (Cat. No. SM-W004; containing 25-capillary cartridge Wash reagent, and 10× Sample Buffer reagent), the ProteinSimple Anti-Rabbit HRP Detection Module for Jess (Cat. No. DM-001; containing Antibody Diluent, anti-rabbit secondary antibody, Luminol-S, Peroxide, and Streptavidin-HRP), and the ProteinSimple Anti-Mouse NIR Detection Module for Jess (Cat. No. DM-009; containing Antibody Diluent, anti-mouse NIR secondary antibody, and Streptavidin-NIR) as the following describes. The DTT was reconstituted with 40 μL water to make a 400 mM solution, 20 μL of the DTT solution plus 20 μL of 10× Sample Buffer were added to reconstitute the 5× Fluorescent Master Mix, and 20 μL of H2O was used to reconstitute the biotinylated ladder. For each sample, lysate (4 μL) was combined with 5× Fluorescent Master Mix (1 μL) and heated at 95° C. for 5 minutes. Samples were cooled and stored on ice. Primary antibody solution was made using anti-SMARCA2 antibody (Abcam, Cat. No. 240648, 1:10) and anti-beta-Actin antibody (Cell Signaling Technology, Cat. No. 3700S, 1:25) in antibody diluent. The 25-capillary cartridges were prepared per standard ProteinSimple protocol with each sample in a column. For the biotinylated ladder in column 1, the following were added: 5 µL of ladder sample in Row A, 10 μL of antibody diluent in Rows B and C, 10 μL of Streptavidin-NIR in Row D, and 15 μL of a 50:50 Luminol-s/Peroxide solution in Row E. For each test sample (columns 2-25), the following were added per column: 5 μL of sample in Row A, 10 μL of antibody diluent in Row B, 10 μL of primary antibody solution in Row C, 10 μL of secondary antibody in Row D, and 15 μL of a 50:50 Luminol-S/Peroxide solution in Row E. 500 μL wash buffer was added to the wash buffer wells in the cartridge and cartridge was spun at 1000×g for 5 minutes prior to loading into the Jess. Samples were run using the Chemiluminescence and Fluorescence immunoassays in the ProteinSimple Compass for SimpleWestern program (version 5.0.0). After running, SMARCA2, actin, and background curves were identified in the Compass software; note that in the Compass software, the electropherograms are also visualized as bands for comparison with standard Western blot outputs. The electropherogram area reading for each sample curve was normalized to that of the corresponding actin curve per column following background (capillary background) subtraction using the following equation: […]
Following normalization, the percentage of SMARCA2 remaining per sample relative to the vehicle control was calculated as follows: […]

Experiment [2] addresses T2, SMARCA4 (Homo sapiens, UniProt P51532).
T2 construct: endogenous in cells
Put plainly: Cellular degradation assay, SMARCA4 (Table 1). It is filed as cell-based.

T2 sequence (P51532 whole entry, species assumed): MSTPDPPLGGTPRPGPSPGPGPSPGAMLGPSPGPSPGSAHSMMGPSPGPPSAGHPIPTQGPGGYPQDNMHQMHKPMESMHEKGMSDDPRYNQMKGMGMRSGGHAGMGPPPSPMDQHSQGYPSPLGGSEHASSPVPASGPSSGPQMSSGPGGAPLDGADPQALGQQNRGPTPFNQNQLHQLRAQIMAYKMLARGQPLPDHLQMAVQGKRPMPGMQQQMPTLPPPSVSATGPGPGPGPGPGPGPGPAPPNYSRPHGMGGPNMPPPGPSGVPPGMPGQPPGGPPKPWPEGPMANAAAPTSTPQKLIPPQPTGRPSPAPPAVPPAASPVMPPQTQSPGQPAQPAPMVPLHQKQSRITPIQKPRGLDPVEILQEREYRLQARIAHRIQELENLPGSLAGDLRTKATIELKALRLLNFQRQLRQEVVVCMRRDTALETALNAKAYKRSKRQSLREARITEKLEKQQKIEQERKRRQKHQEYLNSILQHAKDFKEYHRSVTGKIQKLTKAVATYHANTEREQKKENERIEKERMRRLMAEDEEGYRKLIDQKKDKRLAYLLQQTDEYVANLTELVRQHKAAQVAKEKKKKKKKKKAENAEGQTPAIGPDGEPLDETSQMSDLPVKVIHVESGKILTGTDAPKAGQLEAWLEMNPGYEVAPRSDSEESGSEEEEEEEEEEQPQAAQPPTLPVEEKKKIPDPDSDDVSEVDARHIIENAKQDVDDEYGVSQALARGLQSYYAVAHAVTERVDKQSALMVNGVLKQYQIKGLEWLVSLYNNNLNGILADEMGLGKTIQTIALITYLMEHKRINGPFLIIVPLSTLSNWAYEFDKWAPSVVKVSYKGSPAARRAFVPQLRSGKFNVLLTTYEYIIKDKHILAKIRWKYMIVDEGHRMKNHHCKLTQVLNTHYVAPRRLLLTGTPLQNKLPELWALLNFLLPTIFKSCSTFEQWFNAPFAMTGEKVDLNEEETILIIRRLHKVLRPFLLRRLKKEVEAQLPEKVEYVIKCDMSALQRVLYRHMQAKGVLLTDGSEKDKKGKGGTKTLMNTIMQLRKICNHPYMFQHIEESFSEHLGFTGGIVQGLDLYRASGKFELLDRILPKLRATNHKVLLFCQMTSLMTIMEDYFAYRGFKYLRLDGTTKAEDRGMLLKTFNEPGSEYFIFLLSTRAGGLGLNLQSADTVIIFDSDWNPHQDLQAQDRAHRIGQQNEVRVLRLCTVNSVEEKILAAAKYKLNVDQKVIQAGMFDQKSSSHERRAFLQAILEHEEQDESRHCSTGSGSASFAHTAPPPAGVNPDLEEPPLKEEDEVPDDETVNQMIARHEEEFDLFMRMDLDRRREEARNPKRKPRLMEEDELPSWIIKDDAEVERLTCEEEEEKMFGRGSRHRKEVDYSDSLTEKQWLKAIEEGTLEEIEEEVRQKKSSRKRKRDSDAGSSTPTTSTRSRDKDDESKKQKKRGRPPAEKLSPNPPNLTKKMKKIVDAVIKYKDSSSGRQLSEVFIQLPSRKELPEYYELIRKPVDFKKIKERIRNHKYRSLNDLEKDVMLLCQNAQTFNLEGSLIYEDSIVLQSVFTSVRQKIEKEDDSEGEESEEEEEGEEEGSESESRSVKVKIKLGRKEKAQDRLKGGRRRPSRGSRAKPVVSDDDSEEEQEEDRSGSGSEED
T1 sequence (P51531 whole entry, species assumed): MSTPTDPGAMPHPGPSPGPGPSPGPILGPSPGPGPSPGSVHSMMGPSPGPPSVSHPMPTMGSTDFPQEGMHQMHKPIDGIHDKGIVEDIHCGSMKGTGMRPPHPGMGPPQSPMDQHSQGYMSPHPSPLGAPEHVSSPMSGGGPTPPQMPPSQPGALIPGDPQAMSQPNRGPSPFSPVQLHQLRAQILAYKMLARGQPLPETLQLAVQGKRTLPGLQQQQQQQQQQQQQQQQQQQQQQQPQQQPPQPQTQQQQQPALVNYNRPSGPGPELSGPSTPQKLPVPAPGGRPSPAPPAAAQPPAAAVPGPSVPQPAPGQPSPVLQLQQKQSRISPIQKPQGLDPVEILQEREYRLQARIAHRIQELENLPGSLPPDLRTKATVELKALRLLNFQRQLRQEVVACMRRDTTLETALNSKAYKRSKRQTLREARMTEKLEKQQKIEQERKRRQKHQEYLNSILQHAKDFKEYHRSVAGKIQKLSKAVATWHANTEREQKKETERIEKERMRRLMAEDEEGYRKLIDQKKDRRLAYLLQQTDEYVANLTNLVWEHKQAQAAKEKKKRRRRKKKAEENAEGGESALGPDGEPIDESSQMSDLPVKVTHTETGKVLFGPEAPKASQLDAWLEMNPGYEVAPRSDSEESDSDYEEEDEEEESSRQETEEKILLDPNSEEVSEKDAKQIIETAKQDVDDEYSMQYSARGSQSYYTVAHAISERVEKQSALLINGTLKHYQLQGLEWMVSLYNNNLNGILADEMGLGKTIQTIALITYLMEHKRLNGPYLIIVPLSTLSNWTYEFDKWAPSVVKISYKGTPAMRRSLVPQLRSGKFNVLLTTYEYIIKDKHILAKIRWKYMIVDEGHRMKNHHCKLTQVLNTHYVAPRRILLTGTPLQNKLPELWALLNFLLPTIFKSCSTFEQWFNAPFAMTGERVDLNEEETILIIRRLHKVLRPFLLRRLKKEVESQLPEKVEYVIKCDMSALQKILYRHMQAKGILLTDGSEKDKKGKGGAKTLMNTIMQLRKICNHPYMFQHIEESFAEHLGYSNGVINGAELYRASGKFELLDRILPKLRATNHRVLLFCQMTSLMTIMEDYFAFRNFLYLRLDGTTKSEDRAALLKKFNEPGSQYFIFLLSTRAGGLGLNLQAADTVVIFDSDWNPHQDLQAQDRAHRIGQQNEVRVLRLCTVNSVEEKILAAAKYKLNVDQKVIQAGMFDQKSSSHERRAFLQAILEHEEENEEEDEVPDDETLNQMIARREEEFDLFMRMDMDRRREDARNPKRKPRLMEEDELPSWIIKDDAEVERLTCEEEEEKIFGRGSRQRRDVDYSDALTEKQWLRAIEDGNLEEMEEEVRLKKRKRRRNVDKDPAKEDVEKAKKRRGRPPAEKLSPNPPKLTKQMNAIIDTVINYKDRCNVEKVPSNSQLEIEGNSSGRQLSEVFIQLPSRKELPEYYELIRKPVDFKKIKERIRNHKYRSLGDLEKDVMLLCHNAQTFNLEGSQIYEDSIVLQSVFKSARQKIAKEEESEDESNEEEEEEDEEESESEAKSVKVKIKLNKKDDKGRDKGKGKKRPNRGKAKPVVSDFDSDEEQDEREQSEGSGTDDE

Consider `O=C1CCC(c2ccc(N3CCC(CCN4CC5(C4)CN(C(=O)C4(OC6CCCCC6)CCN(c6cnnc(-c7ccccc7O)c6)CC4)C5)CC3)cc2)C(=O)N1` (racemic) [Example 121, rac-3-(4-(4-(2-(6-(4-(cyclohexyloxy)-1-(6-(2-hydroxyphenyl)pyridazin-4-yl)piperidine-4-carbonyl)-2,6-diazaspiro[3.3]heptan-2-yl)ethyl)piperidin-1-yl)phenyl)piperidine-2,6-dione], for which, in experiment [1], the DC50 (in general, the concentration giving 50% degradation) is 14.9 nM; the Dmax (usually the largest share of the target that was removed) was found to be 74.3%; the “Fold Selectivity SMARCA4/2” value is 671. Also, the Dmax in experiment [2] amounted to 29.3%.

Regarding `O=C1CC[C@H](c2ccc(N3CCC(CN4CC5(C4)CN(C(=O)C4(c6ccccc6)CCN(c6cnnc(-c7ccccc7O)c6)CC4)C5)CC3)cc2)C(=O)N1` [Example 15, (3R)-3-(4-{4-[(6-{1-[6-(2-hydroxyphenyl)pyridazin-4-yl]-4-phenylpiperidine-4-carbonyl}-2,6-diazaspiro[3.3]heptan-2-yl)methyl]piperidin-1-yl}phenyl)piperidine-2,6-dione], in experiment [1], the DC50 was 14.8 nM, the Dmax was 79.9% and the “Fold Selectivity SMARCA4/2” value came out at 340.31. In addition, in experiment [2], the DC50 is 5030 nM and the Dmax was 49.3%.

On to `O=C1CCC(c2ccc(OCC3CCN(C(=O)C4(c5ccccc5)CCN(c5cnnc(-c6ccccc6O)c5)CC4)CC3)cc2)C(=O)N1` (racemic) [Example 5, rac-(3R)-3-{4-[(1-{1-[6-(2-hydroxyphenyl)pyridazin-4-yl]-4-phenylpiperidine-4-carbonyl}piperidin-4-yl)methoxy]phenyl}piperidine-2,6-dione], for which, in experiment [1], it took 463 nM to reach half-maximal degradation (DC50), the Dmax turned out to be 59.8% and the “Fold Selectivity SMARCA4/2” value is on record as 21.62. In experiment [2], this compound gave a Dmax of 22.6%.

For `CN(C(=O)C1(c2ccccc2)CCN(c2cnnc(-c3ccccc3O)c2)CC1)C1CCN(CCC2CCN(c3ccc(C4CCC(=O)NC4=O)c(F)c3)CC2)CC1` (racemic) [Example 151, rac-N-{1-[2-(1-{4-[(3R)-2,6-dioxopiperidin-3-yl]-3-fluorophenyl}piperidin-4-yl)ethyl]piperidin-4-yl}-1-[6-(2-hydroxyphenyl)pyridazin-4-yl]-N-methyl-4-phenylpiperidine-4-carboxamide], in experiment [1], the DC50 came to 3.57 nM, the Dmax is 92.3% and the “Fold Selectivity SMARCA4/2” value is listed as 44. In experiment [2], this compound came in with a DC50 of 157 nM and a Dmax of 59.6%.

As for `O=C1CC[C@H](c2ccc(N3CCC(CNC4CC5CCCC(C4)C5NC(=O)C4(c5ccccc5)CCN(c5cnnc(-c6ccccc6O)c5)CC4)CC3)cc2)C(=O)N1` (stereo partly drawn) [Example 49, N-(3-{[(1-{4-[(3R)-2,6-dioxopiperidin-3-yl]phenyl}piperidin-4-yl)methyl]amino}bicyclo[3.3.1]nonan-9-yl)-1-[6-(2-hydroxyphenyl)pyridazin-4-yl]-4-phenylpiperidine-4-carboxamide], in experiment [1], the DC50 came out at 26.4 nM, the Dmax was determined as 76.9% and the “Fold Selectivity SMARCA4/2” value was determined as 6.52. In experiment [2], this compound had a half-maximal degradation concentration (DC50) of 172 nM and a Dmax of 59.8%.

`Cn1ccc(OC2(C(=O)N3CCC4(CC3)CN(CCC3CCN(c5ccc(C6CCC(=O)NC6=O)cc5)CC3)C4)CCN(c3cnnc(-c4ccccc4O)c3)CC2)n1` (racemic) [Example 128, rac-3-(4-(4-(2-(7-(1-(6-(2-hydroxyphenyl)pyridazin-4-yl)-4-((1-methyl-1h-pyrazol-3-yl)oxy)piperidine-4-carbonyl)-2,7-diazaspiro[3.5]nonan-2-yl)ethyl)piperidin-1-yl)phenyl)piperidine-2,6-dione]: in experiment [1], it took 11.1 nM to reach half-maximal degradation (DC50), the Dmax worked out at 71.6% and the “Fold Selectivity SMARCA4/2” value was 899. The Dmax in experiment [2] worked out at 39.1%.

Consider `O=C1CCC(c2ccc(OC3CCN(CC4CCN(C(=O)C5(c6ccccc6)CCN(c6cnnc(-c7ccccc7O)c6)CC5)CC4)CC3)cc2)C(=O)N1` (racemic) [Example 12, rac-(3R)-3-[4-({1-[(1-{1-[6-(2-hydroxyphenyl)pyridazin-4-yl]-4-phenylpiperidine-4-carbonyl}piperidin-4-yl)methyl]piperidin-4-yl}oxy)phenyl]piperidine-2,6-dione], for which, in experiment [1], the DC50 was found to be 144 nM, the Dmax amounted to 61.7% and the “Fold Selectivity SMARCA4/2” value was 69.67. For the same compound, in experiment [2], the Dmax was 36.9%.

Consider `O=C1CCC(c2c(F)cc(N3CCC(CN4CCC5(CC4)CN(C(=O)C4(c6ccccc6)CCN(c6cnnc(-c7ccccc7O)c6)CC4)C5)CC3)cc2F)C(=O)N1` (racemic) [Example 193, rac-(3R)-3-(2,6-difluoro-4-{4-[(2-{1-[6-(2-hydroxyphenyl)pyridazin-4-yl]-4-phenylpiperidine-4-carbonyl}-2,7-diazaspiro[3.5]nonan-7-yl)methyl]piperidin-1-yl}phenyl)piperidine-2,6-dione], for which, in experiment [1], the DC50 was 1.24 nM, the Dmax was 94.9% and the “Fold Selectivity SMARCA4/2” value was found to be 11. In experiment [2], this compound yielded a DC50 of 13.2 nM and a Dmax of 84.2%.

For `Cc1cc(C2(C(=O)N(C)C3CCN(CCC4CCN(c5ccc(C6CCC(=O)NC6=O)c(F)c5)CC4)CC3)CCN(c3cnnc(-c4ccccc4O)c3)CC2)on1` (racemic) [Example 60, rac-N-{1-[2-(1-{4-[(3R)-2,6-dioxopiperidin-3-yl]-3-fluorophenyl}piperidin-4-yl)ethyl]piperidin-4-yl}-1-[6-(2-hydroxyphenyl)pyridazin-4-yl]-N-methyl-4-(3-methyl-1,2-oxazol-5-yl)piperidine-4-carboxamide], in experiment [1], it took 3.79 nM to reach half-maximal degradation (DC50), the Dmax stood at 85.7% and the “Fold Selectivity SMARCA4/2” value is 2639. The Dmax in experiment [2] turned out to be 35.7%.

With `O=C1CCC(c2ccc(N3CCC(CNC4CCN(C(=O)C5(c6ccccc6)CCN(c6cnnc(-c7ccccc7O)c6)CC5)CC4)CC3)cc2)C(=O)N1` (racemic) [Example 7, rac-(3R)-3-[4-(4-{[(1-{1-[6-(2-hydroxyphenyl)pyridazin-4-yl]-4-phenylpiperidine-4-carbonyl}piperidin-4-yl)amino]methyl}piperidin-1-yl)phenyl]piperidine-2,6-dione], in experiment [1], the Dmax worked out at 53.1% and the “Fold Selectivity SMARCA4/2” value came to 1. The same compound registered a maximal degradation (Dmax) in experiment [2] of 32%.

Consider `CN(C(=O)C1(Oc2ccccc2Cl)CCN(c2cnnc(-c3ccccc3O)c2)CC1)C1CCN(C(=O)CN2CCC(c3ccc([C@@H]4CCC(=O)NC4=O)cc3)CC2)CC1` (racemic) [Example 112], for which, in experiment [1], the DC50 came to 4.19 nM, the Dmax was 92% and the “Fold Selectivity SMARCA4/2” value was determined as 5. In experiment [2], this compound displayed a DC50 of 20.8 nM and a Dmax of 87.7%.

In the case of `CN(C(=O)C1(c2ccccc2)CCN(c2cnnc(-c3ccccc3O)c2)CC1)C1CCN(CCC2CCN(c3ccc(C4CCC(=O)NC4=O)cn3)CC2)CC1` (racemic) [Example 69, rac-N-(1-(2-(1-(5-(2,6-dioxopiperidin-3-yl)pyridin-2-yl)piperidin-4-yl)ethyl)piperidin-4-yl)-1-(6-(2-hydroxyphenyl)pyridazin-4-yl)-N-methyl-4-phenylpiperidine-4-carboxamide], in experiment [1], half-maximal degradation (DC50) was put at 6.23 nM, the Dmax turned out to be 85.3% and the “Fold Selectivity SMARCA4/2” value is 1605. Moreover, the Dmax in experiment [2] turned out to be 44.1%.
